Assays:
[1] = test system: platelets; test: agonist-induced platelet granule secretion (P-selectin expression, flow cytometry); format: cell-based, human; settings: for effect on PMA-induced platelet activation: in words
Procedure: In order to assay platelet activation by cell surface marker expression, fresh PRP is isolated from donors who have not ingested aspirin for two weeks prior to donation. PRP (40 μl) is incubated with known or suspected inhibitor in DMSO or DMSO alone for 15 min. The sample is then incubated with the indicated agonist (e.g., SFLLR) for 10 min. Following incubation of the sample with the indicated agonist, 10 μl of reaction mixture is transferred to 5 μl of phycoerythrin (PE)-conjugated AC 1.2 anti-P-selectin antibody (for assessment of P-selectin surface expression) or fluorescein isothiocyanate (FITC)-conjugated PAC-1 antibody (for assessment of GPIIbIIIa activation). PBS (500 μl) is added to the sample after a 20 min incubation and the platelets are analyzed immediately by flow cytometry. Flow cytometry can be performed using, for example, a Becton-Dickinson FACSCalibur flow cytometer or its equivalent. Fluorescent channels are set at logarithmic gain. Ten thousand particles are acquired for each sample. A 530/30 band pass filter is used for FL-1 fluorescence. A 585/42 band pass filter is used for FL-2 fluorescence. FITC is measured in the FL-1 channel and PE is measured in the FL-2 channel. Data are analyzed using, for example, CellQuest software on a Macintosh PowerPC, or their equivalents. […]
Each of the compounds was tested for inhibition of platelet activation in response to the agonists SFLLR (a thrombin mimic), U46619 (a thromboxane A2 mimic), ADP and the phorbol ester PMA.
Compounds were also tested by flow cytometry for the inhibition of SFLLR-induced GPIIbIIIa activation and P-selectin expression. In these experiments, freshly obtained PRP was prepared from healthy volunteers who had not ingested aspirin for two weeks prior to donation. Forty μl of PRP was incubated with inhibitor in DMSO or DMSO alone for 15 min. The sample was then incubated with the indicated agonist for 10 min. Following incubation of the sample with the indicated agonist, 10 μl of reaction mixture was transferred to 5 μl of PE-conjugated AC1.2 anti-P-selectin antibody (for assessment of P-selectin surface expression) or FITC-conjugated PAC-1 antibody (for assessment of GPIIbIIIa activation). PBS (500 μl) was added to the sample after a 20 min incubation and the platelets were analyzed immediately by flow cytometry. Flow cytometry was performed using a Becton-Dickinson FACSCalibur flow cytometer. Fluorescent channels were set at logarithmic gain. Ten thousand particles were acquired for each sample. A 530/30 band pass filter was used for FL-1 fluorescence. A 585/42 band pass filter was used for FL-2 fluorescence. FITC was measured in the FL-1 channel and PE was measured in the FL-2 channel. Data were analyzed using CellQuest software on a MacIntosh PowerPC.
Compound was tested for its ability to inhibit SFLLR-, U46619-, ADP-, PMA-, and collagen I-induced platelet α-granule secretion. In these assays, platelets were incubated with increasing doses of compound for 30 minutes. The platelets were then exposed to a maximally stimulatory dose of the indicated agonist. P-selectin surface expression was analyzed by flow cytometry using phycoerythrin-anti-P-selectin to monitor for α-granule secretion.

[2] = biological target: T1, human platelet PDE5 (Homo sapiens, UniProt O76074); test: phosphodiesterase inhibition, PDE5; format: biochemical; settings: up to 1 μM, in words
T1 construct: from tissue; host or cells: human platelets
Procedure: Intracellular cAMP generated by adenylyl cyclase in platelets is actively hydrolyzed by phosphodiesterase. […] Human platelets express PDE2, PDE3, and PDE5. Therefore, the compound was tested for its inhibitory effect on these phosphodiesterases using methods as described in Example 3.

[3] = test system: platelets; test: platelet aggregation (aggregometer); format: cell-based, human; settings: in words
Procedure: Platelet aggregation profiling is a standard methodology, generally performed with an instrument adapted for that express purpose, for example, a Platelet Aggregation Profiler (BioData, Horsham, Pa.). The assays can generally be performed according to the instructions of the manufacturer. As exemplary conditions, 400 μl of PRP are incubated with inhibitor for 15 minutes at room temperature. The sample is then incubated for 3 minutes at 37° C. in the Platelet Aggregation Profiler. The instrument is calibrated with platelet poor plasma serving as a blank. A baseline tracing is established by monitoring the light transmittance of PRP being stirred at 1200 rpm. Aggregation is initiated by the addition of SFLLR (200 μM) and the percent of platelet aggregation is measured by the change in light transmittance for 6 minutes following addition of SFLLR.

[4] = listed as pyridazinone compound

CC1CC(=O)NN=C1c1ccc(N)c([N+](=O)[O-])c1 (stereo not drawn) [6-(4-Amino-3-nitro-phenyl)-5-methyl-4,5-dihydro-2H-pyridazin-3-one]
IC50s for ADP- and collagen-induced granule release less potent than SFLLR/U46619 ([1]; ADP, collagen vs SFLLR, U46619): at least 25 fold | effect on PMA-induced platelet activation ([1]; listed as Structure 8): did not inhibit | effect on PMA-induced platelet activation [1, 4]: No inhibition | inhibition of human platelet PDE5 ([2]; listed as Pyridazinone compound): No significant inhibition | inhibition of human platelet PDE5 [2, 4]: little inhibition | inhibition of SFLLR-induced platelet aggregation [3]: potent inhibitor

Reference: US7166612B2, “Methods for reducing platelet activation platelet aggregaton or thrombosis” (Beth Israel Deaconess Medical Center, priority 2001, dated 2007)
